# Where “and” joins values, the source holds several entries; their conditions need not be identical. Equal values may be shown once.
# Columns and labels:
# [1] = tested on: rat osteoblasts; experiment: Single osteoblast sensor: response time to chemical analytes; type: cell-based; settings: at the concentration printed under each value (EDTA 280 ppm, ethanol 190 ppm, peroxide 25 ppm, pyrethroids 890 ppm), preliminary results
# Procedure: The experiments in Example 2 were conducted on mammalian cells, rat osteoblasts and neurons (18 day embryonic Wistar rat) having highly excitable cell membranes. […] A unique response of each cell type to each agent was determined. […] Here, two out of four agents are discussed. Additionally, the response of each cell type to a mixture of the four agents was determined in order to simulate the real time field conditions. The results obtained for neurons are discussed.
# (§1) For example, for the experiments described herein, an experimental platform comprising a 5×5 electrode array on a substrate, a silicone chamber, and a measurement system was used. The micrograph of the fabricated electrode array on a substrate is shown in FIG. 1 with a 5×5 platinum electrode array pattern, electrode diameter of 80 μm and with a 200 μm center to center spacing. Two platinum plated leads (6 μm, thick) from each electrode terminated at two separate electrode pads. The dimensions of the electrode pads were 100 μm×120 μm. The electrode array on the substrate was coated with a permeation polyethylamine (PEI) and collagen with a volume of 200 μl (PEI, 1 mg/ml, Collagen 1X, Sigma, St. Louis, Mo.). The electrode array on the substrate with the aqueous coating of the permeation layer was incubated for about 12 hours prior to the experiment at 37 ° C. and 5% CO2.
# The cells were separated and positioned over the electrodes by setting up a gradient AC field using an extracellular positioning system, comprising of a pulse generator and micromanipulators. The AC signal from the pulse generator was fed to the electrode pads of the selected electrodes using the micromanipulators. The extracellular recordings from the cells were amplified and recorded on an oscilloscope. […]
# Then fast Fourier transformation (FFT) and wavelet transformation (WT) analysis were used to extract important information from the extracellular action potential (AP) for the neurons. […] Quantitative dose response curves and response times were also obtained for the single cell systems.
# [2] = tested on: single neuron; settings: estimated theoretically, literature; cited from earlier work
# [3] = tested on: single neuron; experiment: Single neuron sensor: extracellular electrical response to chemical analytes (FFT/WT analysis, signature pattern vector); settings: for Percentage reduction of signal amplitudes from the detection limit to the peak concentration: 5000 ppm to detection limit; for Percentage increase in response time from peak concentration to the sensitivity limits: about 5000 ppm to detection limit; for Response time of a single neuron extracted via WT analysis: at the detection limit; for Detection limit for a single neuron: decrementing concentrations from about 5000 ppm; for Experimentally obtained detection limit (molar): single neuron
# Procedure: The experiments in Example 2 were conducted on mammalian cells, rat osteoblasts and neurons (18 day embryonic Wistar rat) having highly excitable cell membranes. […] A unique response of each cell type to each agent was determined. […] Additionally, the response of each cell type to a mixture of the four agents was determined in order to simulate the real time field conditions.
# as §1
# The cells were separated and positioned over the electrodes by setting up a gradient AC field using an extracellular positioning system, comprising of a pulse generator and micromanipulators. The AC signal from the pulse generator was fed to the electrode pads of the selected electrodes using the micromanipulators. The extracellular recordings from the cells were amplified and recorded on an oscilloscope. The supply and measurement systems are integrated using general-purpose interface bus (GPIB) control and controlled through LabVIEW (National Instruments, Austin, Tex.).
# Then fast Fourier transformation (FFT) and wavelet transformation (WT) analysis were used to extract important information from the extracellular action potential (AP) for the neurons. Specific spectrum power vectors (SSPVs) and the relative spectrum power values (RSPVS) were found for osteoblast. Quantitative dose response curves and response times were also obtained for the single cell systems.
# Extracellular signals from individual neurons due to the action of a specific chemical analyte may be analyzed further to understand the chemical type and the cellular response relationship. Here, single neuron based sensor's response and its sensitivity is determined by statistical reconstruction and enhancement of the acquired experimental data. Each chemical was characterized by a unique SPV obtained from the integrated processing of the modified extracellular action potential in the frequency domain (FFT) as well as the time domain (WT).
# Integrated signal processing yielded an SPV specific to every chemical analyte. The SPV provides unique functional data corresponding to the physiological state of a single neuron due to the action of a particular analyte at a specific concentration. Each SPV comprises of certain frequency states, which are analyte specific and having maximum relative amplitudes that are generated concurrently in the sensing cycle; these correspond to the neuron's modified stable burst rate. Extracellular signal amplitudes greater than about 50 μV are considered to be accurate measures of the cell response due to a specific chemical analyte as the magnitude of signals due to non-specific interactions and noise signals are smaller than this value.
# [4] = tested on: single neuron; settings: hydrogen peroxide added after ethanol, both at their detection limits
# Source text: The detection limits for individual chemicals act as the basis for determining the concentration of the specific chemical analytes used in cascaded sensing. Addition of the first chemical analyte approaching its sensitivity limit results in the acquisition of modified extracellular potential pertaining to the specific chemical analyte. The use of the chemical analyte close to its detection limit leads to the dissipation as well as metabolization of the chemical analyte within a single sensing cycle (180 seconds) that result in the reduction of the chemical analyte concentration below the detection threshold. […] Administration of the second chemical analyte results in a specific modification based on the latter.
# The concentrations of the chemicals used were at their detection limits.
SMILES,Response time of osteoblast cells [1] [sec per],"Lowest single neuron sensitivity, lowest concentration determined by existing methods [2]",Percentage reduction of signal amplitudes from the detection limit to the peak concentration ([3]; n=15),Percentage increase in response time from peak concentration to the sensitivity limits ([3]; n=15),Response time of a single neuron extracted via WT analysis ([3]; n=15),Detection limit for a single neuron ([3]; n=15),Percentage reduction of signal amplitude per 1000 ppm ([3]; n=15),Experimentally obtained detection limit (molar) [3],"Eigen vectors of the SPV / modified firing frequency (Example 2) ([3]; control burst rate 626 Hz, unchanged for varying concentrations, n=15) [Hz]","Frequency of firing of the neuron / eigen values of the SPV (description of FIGS. 4-7) ([3]; low and high frequency modes, hydrogen peroxide within 30 seconds of addition)",High frequency eigen vector after cascaded addition [4] [Hz]
"O=C(O)CN(CCN(CC(=O)O)CC(=O)O)CC(=O)O [EDTA, ethylenediaminetetraacetic acid]",0.14,about 15 pM,about 67%,about 1.8%,about 0.27 second,about 180 ppm,about 10.4%±0.11%,about 3.42×10^−13 M,,,
CCO [ethanol],0.71,about 25 μM,about 52%,about 1.6%,about 0.21 second,about 9 ppm,about 8.2%±0.12%,about 2.17×10^−12 M,314,315 Hz and 627 Hz and 314 Hz and 626 Hz,
OO [hydrogen peroxide],0.42,about 15 nM,about 38%,about 1.8%,about 0.07 second,about 19 ppm,about 7.8%±0.14%,about 2.94×10^−12 M,,,775
